Tests used:
[1] = in vitro stability in PBS, n-octanol and pig plasma; type: in vitro ADME; conditions: PBS pH 7.4, n-octanol and pig plasma, 60 min at 37 °C; radio-TLC and radio-HPLC
Description: To estimate the lipophilicity of [^18F]TA3 and [^18F]TA4, the distribution coefficients were determined by partitioning between n-octanol and phosphate buffered saline (PBS, pH 7.4) at ambient temperature using the conventional shake-flask method. […] In vitro stability of each radioligand was investigated in phosphate buffered saline (PBS, pH 7.4), n-octanol and pig plasma after 60 min incubation at 37 °C.
In vitro stabilities of [^18F]TA3 or [^18F]TA4 were investigated by incubation of the radioligands in phosphate buffered saline (PBS, pH 7.4), n-octanol and pig plasma at 37 °C for 60 min (~5 MBq of the radioligand added to 500 µL of each medium). Samples were taken at 15, 30 and 60 min after incubation and analyzed by radio-TLC and radio-HPLC (system B).

[2] = target: T1, PDE2A (Rattus norvegicus, UniProt Q01062); assay: in vitro autoradiography on sagittal rat brain sections; type: binding; conditions: sagittal rat brain slices, ~1 MBq/mL, 60 min incubation
T1 construct: from tissue; host or cells: sagittal brain sections of female SPRD rats
T1 sequence (Q01062 1-928): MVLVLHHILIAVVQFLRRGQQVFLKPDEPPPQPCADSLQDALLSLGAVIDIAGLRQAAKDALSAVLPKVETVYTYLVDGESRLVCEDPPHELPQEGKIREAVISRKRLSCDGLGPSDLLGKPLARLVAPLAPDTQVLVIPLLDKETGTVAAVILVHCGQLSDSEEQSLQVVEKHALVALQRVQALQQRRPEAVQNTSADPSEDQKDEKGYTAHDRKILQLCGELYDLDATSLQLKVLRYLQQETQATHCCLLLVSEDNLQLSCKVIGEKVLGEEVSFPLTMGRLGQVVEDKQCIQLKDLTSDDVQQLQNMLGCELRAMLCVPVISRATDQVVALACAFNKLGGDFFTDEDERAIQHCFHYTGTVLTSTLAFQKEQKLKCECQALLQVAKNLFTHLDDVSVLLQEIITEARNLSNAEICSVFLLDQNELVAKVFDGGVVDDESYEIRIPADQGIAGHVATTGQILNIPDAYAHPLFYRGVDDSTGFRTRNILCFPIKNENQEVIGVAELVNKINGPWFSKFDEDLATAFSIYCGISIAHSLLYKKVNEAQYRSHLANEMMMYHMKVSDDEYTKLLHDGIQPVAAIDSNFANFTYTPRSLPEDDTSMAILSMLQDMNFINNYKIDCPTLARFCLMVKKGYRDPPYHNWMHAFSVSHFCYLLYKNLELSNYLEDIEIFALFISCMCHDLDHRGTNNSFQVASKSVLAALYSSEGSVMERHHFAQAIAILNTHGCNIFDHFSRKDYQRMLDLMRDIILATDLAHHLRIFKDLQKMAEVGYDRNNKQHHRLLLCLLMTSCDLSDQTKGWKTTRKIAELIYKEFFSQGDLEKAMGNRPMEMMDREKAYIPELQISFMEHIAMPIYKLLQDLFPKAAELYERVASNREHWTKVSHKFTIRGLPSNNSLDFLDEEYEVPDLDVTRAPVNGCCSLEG
Description: In vitro autoradiographic studies were accomplished by incubating sagittal sections of rat brain with [^18F]TA3 or [^18F]TA4. […] The images shown in Figure 6 indicate region-specific accumulation of both radioligands [^18F]TA3 and [^18F]TA4, which is consistent with the distribution pattern of PDE2A protein in rat brain [9, 11]. Therefore, we assume that the novel radioligands might be appropriate for in vitro imaging of PDE2A.
Frozen sagittal brain sections obtained from female SPRD rats (10–12 weeks old) were thawed, dried in a stream of cold air, and preincubated for 20 min with incubation buffer (50 mM TRIS-HCl, pH 7.4, 120 mM NaCl, 5 mM KCl, 2 mM CaCl2, 5 mM MgCl2) at ambient temperature. Brain sections were incubated with ~1 MBq/mL of [^18F]TA3 or [^18F]TA4 in incubation buffer for 60 min at ambient temperature. Afterwards sections were washed twice with 50 mM TRIS-HCl (pH 7.4) for 2 min at 4 °C, dipped briefly in ice-cold deionized water, dried in a stream of cold air and exposed for 60 min to an ^18F-sensitive image plate that was analyzed afterwards using an image plate scanner (HD-CR 35; Duerr NDT GmbH, Bietigheim Bissingen, Germany).

[3] = in vivo metabolism in mice, micellar HPLC (MLC); conditions: CD-1 mice, 30 min p.i.; for intact radioligand in brain: brain homogenate; for intact radioligand in plasma: direct injection
Excerpt: Therefore we used micellar HPLC (MLC), because this method allows the direct injection of plasma samples without deproteination. MLC was recently investigated by Nakao et al. regarding their suitability for direct plasma metabolite analysis of PET radioligands. As eluent a mixture of an aqueous solution of sodium dodecyl sulphate (SDS), phosphate buffer and 1-propanol was used. According to the published procedure, a gradient mode was applied starting under micellar conditions to completely elute the protein fraction and release the protein bound ^18F-compounds by the SDS micelles. Subsequent increase of the amount of 1-propanol as organic modifier leads to high submicellar conditions resulting in the elution of the intact radioligand and its radio-metabolites.
The radioligands [^18F]TA3 or [^18F]TA4 (~60 MBq in 150 µL isotonic saline) were injected via the tail vein in female CD-1 mice (10–12 weeks old). Brain and blood samples were obtained at 30 min p.i., plasma separated by centrifugation (14,000× g, 1 min), and brain homogenized in ~1 mL isotonic saline on ice (10 strokes of a PTFE plunge at 1000 rpm in a borosilicate glass cylinder; Potter S Homogenizer, B. Braun Melsungen AG, Melsungen, Germany).
For preparation of the MLC injection samples, mouse plasma (20–50 µL, 30 min p.i.) was dissolved in 100–300 µL of 200 mM aqueous SDS and injected directly into the MLC system (500 µL sample loop; column: Reprosil-Pur C18-AQ, 250 × 4.6 mm, particle size: 10 µm; gradient: 0–15 min: 3% 1-PrOH, 15–40 min: 3% → 30% 1-PrOH; 40–49 min: 30% 1-PrOH, 49–50 min: 30% → 3% 1-PrOH; 50–60 min: 3% 1-PrOH/100 mM SDS, 10 mM Na2HPO4; flow: 1 mL/min; ambient temperature). […] Homogenized brain material (100–200 µL, 30 min p.i.) was dissolved in 500 µL of 200 mM aqueous SDS, stirred at 75 °C for 5 min and after cooling to ambient temperature injected into the MLC system.

## COc1ccc2nnc3c(C)nc(-c4cc(OCCC[18F])ccc4F)n3c2n1 [[^18F]TA3]
[1]
  in vitro stability: stable in all media tested in vitro
[2]
  regional binding in autoradiography: higher binding densities in cortex and striatum than in cerebellum
[3]
  intact radioligand in brain: 29 % of total activity
  intact radioligand in plasma: 5 % of total activity

## COc1ccc2nnc3c(C)nc(-c4cc(OCCCC[18F])ccc4F)n3c2n1 [[^18F]TA4]
[1]
  in vitro stability: stable in all media tested in vitro
[2]
  regional binding in autoradiography: also binds to the olfactory tubercle, colliculi and partly to cerebellum
[3]
  intact radioligand in brain: 4 % of total activity
  intact radioligand in plasma: 5 % of total activity
